Measured values as given in patent US10597388B2, “Pyridazinone herbicides” (FMC CORPORATION, priority 2014, dated 2020).

Experiments:
Experiment in all cases: Test D controlled growth environment herbicide test, pre- and postemergence
Type in all cases: in vivo
[1] = tested on: pigweed (Amaranthus retroflexus)
Summary of the method: (§1)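 Species sown in silt loam and sprayed preemergence, or grown in peat-based medium to 2–18 cm (1- to 4-leaf stage) and sprayed postemergence, with compounds in non-phytotoxic solvent plus surfactant. Visual injury scored versus controls after 14–21 d in a controlled environment, 0 (no effect) to 100 (complete control).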

[2] = tested on: ryegrass, Italian (Italian ryegrass, Lolium multiflorum)
Summary of the method: as §1

[3] = tested on: blackgrass (Alopecurus myosuroides)
Summary of the method: as §1

[4] = tested on: barley, winter (winter barley, Hordeum vulgare)
Summary of the method: as §1

[5] = tested on: windgrass (Apera spica-venti)
Summary of the method: as §1

[6] = tested on: galium (catchweed bedstraw, Galium aparine)
Summary of the method: as §1

[7] = tested on: wheat, winter (winter wheat, Triticum aestivum)
Summary of the method: as §1

[8] = tested on: deadnettle (henbit deadnettle, Lamium amplexicaule)
Summary of the method: as §1

[9] = tested on: speedwell (bird's-eye speedwell, Veronica persica)
Summary of the method: as §1

[10] = tested on: chickweed (common chickweed, Stellaria media)
Summary of the method: as §1

kochia (Kochia scoparia) = tested on: kochia (Kochia scoparia)
Summary of the method: as §1

[11] = tested on: lambsquarters (Chenopodium album)
Summary of the method: as §1

[12] = tested on: foxtail, green (green foxtail, Setaria viridis)
Summary of the method: as §1

[13] = Postemergence, 31 g ai/ha, scale 0 to 100 (0 no effect, 100 complete control)
[14] = Postemergence, 125 g ai/ha, visual rating on scale 0 (no effect) to 100 (complete control), 14 to 21 d
[15] = Postemergence, 250 g ai/ha, scale 0 to 100 (0 no effect, 100 complete control)
[16] = Preemergence, 125 g ai/ha, scale 0 to 100 (0 no effect, 100 complete control)
[17] = Preemergence, 250 g ai/ha, scale 0 to 100 (0 no effect, 100 complete control)
[18] = postemergence, 62 g ai/ha, scale 0 to 100, 0 no effect, 100 complete control
[19] = Preemergence, 62 g ai/ha, scale 0 to 100 (0 no effect, 100 complete control)

## Cc1nn(C)c(=O)c(-c2c(C)sc3ccc(Cl)cc23)c1O [Compound 104]
[1]; [13]
  Pigweed plant response rating: 100
[1]; [14]
  Plant response rating, Pigweed: 100
[1]; [15]
  Plant response rating, Pigweed: 100
[1]; Preemergence, 31 g ai/ha
  Plant response rating (scale of 0 to 100), Pigweed: 60
[1]; Preemergence, 62 g ai/ha
  Plant response rating (scale of 0 to 100), Pigweed: 100
[1]; [16]
  Plant response rating, Pigweed: 100
[1]; [17]
  Plant response rating, Pigweed: 100
[1]; [18]
  Plant response rating, Pigweed: 100
[2]; [13]
  Ryegrass, Italian plant response rating: 90
[2]; [14]
  Plant response rating, Ryegrass, Italian: 95
[2]; [15]
  Plant response rating, Ryegrass, Italian: 95
[2]; Preemergence, 31 g ai/ha
  Plant response rating (scale of 0 to 100), Ryegrass, Italian: 100
[2]; Preemergence, 62 g ai/ha
  Plant response rating (scale of 0 to 100), Ryegrass, Italian: 100
[2]; [16]
  Plant response rating, Ryegrass, Italian: 100
[2]; [17]
  Plant response rating, Ryegrass, Italian: 100
[2]; [18]
  Plant response rating, Ryegrass, Italian: 95
[3]; [13]
  Blackgrass plant response rating: 35
[3]; [14]
  Plant response rating, Blackgrass: 65
[3]; [15]
  Plant response rating, Blackgrass: 70
[3]; Preemergence, 31 g ai/ha
  Plant response rating (scale of 0 to 100), Blackgrass: 25
[3]; [19]
  Plant response rating, Blackgrass: 60
[3]; [16]
  Plant response rating, Blackgrass: 65
[3]; [17]
  Plant response rating, Blackgrass: 75
[3]; [18]
  Plant response rating, Blackgrass: 40
[4]; [13]
  Barley, Winter plant response rating: 0
[4]; [14]
  Plant response rating, Barley, Winter: 10
[4]; [15]
  Plant response rating, Barley, Winter: 15
[4]; Preemergence, 31 g ai/ha
  Plant response rating (scale of 0 to 100), Barley, Winter: 0
[4]; [19]
  Plant response rating, Barley, Winter: 0
[4]; [16]
  Plant response rating, Barley, Winter: 10
[4]; [17]
  Plant response rating, Barley, Winter: 20
[4]; [18]
  Plant response rating, Barley, Winter: 10
[5]; [13]
  Windgrass plant response rating: 55
[5]; [14]
  Plant response rating, Windgrass: 85
[5]; [15]
  Plant response rating, Windgrass: 85
[5]; Preemergence, 31 g ai/ha
  Plant response rating (scale of 0 to 100), Windgrass: 70
[5]; Preemergence, 62 g ai/ha
  Plant response rating (scale of 0 to 100), Windgrass: 75
[5]; [16]
  Plant response rating, Windgrass: 80
[5]; [17]
  Plant response rating, Windgrass: 100
[5]; [18]
  Plant response rating, Windgrass: 75
[6]; [13]
  Galium plant response rating: 85
[6]; [14]
  Plant response rating, Galium: 100
[6]; [15]
  Plant response rating, Galium: 100
[6]; Preemergence, 31 g ai/ha
  Plant response rating (scale of 0 to 100), Galium: 65
[6]; Preemergence, 62 g ai/ha
  Plant response rating (scale of 0 to 100), Galium: 95
[6]; [16]
  Plant response rating, Galium: 100
[6]; [17]
  Plant response rating, Galium: 100
[6]; [18]
  Plant response rating, Galium: 90
[7]; [13]
  Wheat, Winter plant response rating: 5
[7]; [14]
  Plant response rating, Wheat, Winter: 20
[7]; [15]
  Plant response rating, Wheat, Winter: 25
[7]; Preemergence, 31 g ai/ha
  Plant response rating (scale of 0 to 100), Wheat, Winter: 0
[7]; Preemergence, 62 g ai/ha
  Plant response rating (scale of 0 to 100), Wheat, Winter: 0
[7]; [16]
  Plant response rating, Wheat, Winter: 5
[7]; [17]
  Plant response rating, Wheat, Winter: 15
[7]; [18]
  Plant response rating, Wheat, Winter: 15
[8]; [13]
  Deadnettle plant response rating: 45
[8]; [14]
  Plant response rating, Deadnettle: 70
[8]; [15]
  Plant response rating, Deadnettle: 85
[8]; Preemergence, 31 g ai/ha
  Plant response rating (scale of 0 to 100), Deadnettle: 65
[8]; Preemergence, 62 g ai/ha
  Plant response rating (scale of 0 to 100), Deadnettle: 80
[8]; [16]
  Plant response rating, Deadnettle: 80
[8]; [17]
  Plant response rating, Deadnettle: 100
[8]; [18]
  Plant response rating, Deadnettle: 50
[9]; [13]
  Speedwell plant response rating: 30
[9]; [14]
  Plant response rating, Speedwell: 55
[9]; [15]
  Plant response rating, Speedwell: 70
[9]; [18]
  Plant response rating, Speedwell: 35
[10]; [13]
  Chickweed plant response rating: 95
[10]; [14]
  Plant response rating, Chickweed: 100
[10]; [15]
  Plant response rating, Chickweed: 100
[10]; Preemergence, 31 g ai/ha
  Plant response rating (scale of 0 to 100), Chickweed: 100
[10]; Preemergence, 62 g ai/ha
  Plant response rating (scale of 0 to 100), Chickweed: 100
[10]; [16]
  Plant response rating, Chickweed: 95
[10]; [17]
  Plant response rating, Chickweed: 100
[10]; [18]
  Plant response rating, Chickweed: 100
Kochia (Kochia scoparia); [13]
  Kochia plant response rating: 95
Kochia (Kochia scoparia); [14]
  Plant response rating, Kochia: 100
Kochia (Kochia scoparia); [15]
  Plant response rating, Kochia: 100
Kochia (Kochia scoparia); Preemergence, 31 g ai/ha
  Plant response rating (scale of 0 to 100), Kochia: 30
Kochia (Kochia scoparia); Preemergence, 62 g ai/ha
  Plant response rating (scale of 0 to 100), Kochia: 75
Kochia (Kochia scoparia); [16]
  Plant response rating, Kochia: 95
Kochia (Kochia scoparia); [17]
  Plant response rating, Kochia: 100
Kochia (Kochia scoparia); [18]
  Plant response rating, Kochia: 95
[11]; [13]
  Lambsquarters plant response rating: 95
[11]; [14]
  Plant response rating, Lambsquarters: 100
[11]; [15]
  Plant response rating, Lambsquarters: 100
[11]; Preemergence, 31 g ai/ha
  Plant response rating (scale of 0 to 100), Lambsquarters: 75
[11]; Preemergence, 62 g ai/ha
  Plant response rating (scale of 0 to 100), Lambsquarters: 100
[11]; [16]
  Plant response rating, Lambsquarters: 100
[11]; [17]
  Plant response rating, Lambsquarters: 100
[11]; [18]
  Plant response rating, Lambsquarters: 100
[12]; [13]
  Foxtail, Green plant response rating: 30
[12]; [14]
  Plant response rating, Foxtail, Green: 85
[12]; [15]
  Plant response rating, Foxtail, Green: 90
[12]; Preemergence, 31 g ai/ha
  Plant response rating (scale of 0 to 100), Foxtail, Green: 20
[12]; Preemergence, 62 g ai/ha
  Plant response rating (scale of 0 to 100), Foxtail, Green: 70
[12]; [16]
  Plant response rating, Foxtail, Green: 100
[12]; [17]
  Plant response rating, Foxtail, Green: 100
[12]; [18]
  Plant response rating, Foxtail, Green: 70
